From patent publication US5112382A, “Halopropargyl compounds, compositions, uses and processes of preparation” (Rohm and Haas Company, priority 1990, dated 1992)
Converted amounts (≈) assume the structure as drawn. Read-outs that look alike come from different tables or passages of the source.

Legend:
Septoria nodorum = assay: In-vitro plant fungicide test, SEP; format: cell-based; settings: Parastagonospora nodorum, read-out: % Control; for inhibition of growth at 25 ppm: rate 25 PPM; for inhibition of growth at 50 ppm: rate 50 PPM
Pythium ultimum = assay: In-vitro plant fungicide test, PYU; format: cell-based; settings: Globisporangium ultimum, read-out: % Control; for inhibition of growth at 25 ppm: rate 25 PPM; for inhibition of growth at 50 ppm: rate 50 PPM
Staphylococcus aureus = assay: MIC, broth two-fold serial dilution test, Saur; format: cell-based; settings: read-out: Minimum Inhibitory Concentration (MIC)
Experimental: (§1) A minimum inhibitory concentration (MIC) value is obtained using a broth, two-fold serial dilution test performed as follows: […] A volume of the stock solution is dispensed into culture media to give an initial starting test concentration of 500 ppm compound. The test is carried out by adding and equal volume of broth to each vessel in the dilution series, except for the first vessel. The first vessel contains twice the volume of broth plus the initial concentration of test compound. One half of the broth from the first vessel is transferred to the second vessel. After being mixed, one half the resulting volume is removed from the second vessel and transferred to the third vessel. The entire cycle is repeated sufficiently to give a series of concentrations amounting to 500, 250, 125, 63, 31, 16, 8, and 4 ppm (or 100, 50, 25, 12.5, 6.2, 3.1, 1.6, and 0.8), respectively. Each vessel is then inoculated with a cell suspension of the appropriate test organism. Bacteria are grown in both and fungi on agar slats for a time and at a temperature appropriate to the species being tested. At the end of the growth period, the broth is vortexed to disperse the cells. In the case of fungi, the pores are harvested by pipetting water onto the slant and dislodging the spores with a sterile loop. The cell/spore suspension is standardized by controlling incubation time, temperature, and the volume of the diluent. The suspension is then used to inoculate the vessels containing the broth compound. The vessels are then incubated at the appropriate temperature. After the incubation, the vessels are examined for growth/no growth. The minimum inhibitory concentration (MIC) is defined as the lowest concentration of compound that results in complete inhibition of growth of the test organism.

Phytophthora capsici = assay: In-vitro plant fungicide test, PHY; format: cell-based; settings: read-out: % Control; for inhibition of growth at 25 ppm: rate 25 PPM; for inhibition of growth at 50 ppm: rate 50 PPM
Escherichia coli = assay: MIC, broth two-fold serial dilution test, Ecol; format: cell-based; settings: read-out: Minimum Inhibitory Concentration (MIC)
Experimental: as §1

Botrytis cinerea = assay: In-vitro plant fungicide test, BOC; settings: read-out: % Control
Fusarium roseum = assay: microbe, parasite or virus in culture; settings: Fusarium sambucinum, read-out: % Control
[1] = test system: Puccinia recondita (f. sp. tritici Races PKB and PLD); assay: whole plant or invertebrate; format: in vivo; settings: 240 h
Phytophthora infestans = assay: whole plant or invertebrate; format: in vivo; settings: in Solanum lycopersicum, 96 h, read-out: % Control
Pseudomonas aerugenosa = assay: MIC, broth two-fold serial dilution test, Psae; format: cell-based; settings: read-out: Minimum Inhibitory Concentration (MIC)
Experimental: as §1

Aspergillus niger = assay: MIC, broth two-fold serial dilution test, Anig; format: cell-based; settings: read-out: Minimum Inhibitory Concentration (MIC)
Experimental: as §1

Pseudomonas fluorescens = assay: MIC, broth two-fold serial dilution test, Psfl; format: cell-based; settings: read-out: Minimum Inhibitory Concentration (MIC)
Experimental: as §1

Piricularia oryzae [2] = assay: microbe, parasite or virus in culture; format: cell-based; settings: read-out: % Control
[3] = test system: Erysiphe graminis (f. sp. tritici); assay: whole plant or invertebrate; format: in vivo; settings: Blumeria graminis
Cochliobolus sativus = assay: In-vitro plant fungicide test, HEL; format: cell-based; settings: Bipolaris sorokiniana, read-out: % Control; for inhibition of growth at 25 ppm: rate 25 PPM; for inhibition of growth at 50 ppm: rate 50 PPM
Piricularia oryzae [4] = assay: whole plant or invertebrate; format: in vivo; settings: Pyricularia oryzae, 192 h, read-out: % Control
Aureobasidium pullulans = assay: MIC, broth two-fold serial dilution test, Apul; format: cell-based; settings: read-out: Minimum Inhibitory Concentration (MIC)
Experimental: as §1

Rhizoctonia solani = assay: In-vitro plant fungicide test, RHI; format: cell-based; settings: read-out: % Control; for inhibition of growth at 25 ppm: rate 25 PPM; for inhibition of growth at 50 ppm: rate 50 PPM
Xanthomonas campestris = assay: In-vitro plant fungicide test, XAN; format: cell-based; settings: read-out: % Control
[5] = test system: Pseudoperonospora cubensis; assay: whole plant or invertebrate; format: in vivo; settings: in Cucumis sativus, 168 h
[6] = test system: Septoria glume blotch of wheat; assay: whole plant or invertebrate; format: in vivo; settings: Triticum aestivum

SMILES	inhibition of growth at 25 ppm (Septoria nodorum) [%]	inhibition of growth at 25 ppm (Pythium ultimum) [%]	MIC (Staphylococcus aureus) [µg/mL]	inhibition of growth at 25 ppm (Phytophthora capsici) [%]	MIC (Escherichia coli) [µg/mL]	inhibition of growth at 25 ppm (Botrytis cinerea) [%]	inhibition of growth at 25 ppm (Fusarium roseum) [%]	pest or weed control at 200 ppm [1] [%]	pest or weed control at 200 ppm (Phytophthora infestans) [%]	MIC (Pseudomonas aerugenosa) [µg/mL]	MIC (Aspergillus niger) [µg/mL]	MIC (Pseudomonas fluorescens) [µg/mL]	inhibition of growth at 25 ppm (Piricularia oryzae [2]) [%]	pest or weed control at 200 ppm [3] [%]	inhibition of growth at 25 ppm (Cochliobolus sativus) [%]	pest or weed control at 200 ppm (Piricularia oryzae [4]) [%]	MIC (Aureobasidium pullulans) [µg/mL]	inhibition of growth at 25 ppm (Rhizoctonia solani) [%]	pest or weed control at 200 ppm [5] [%]	pest or weed control at 200 ppm [6] [%]	other results
CCOC(=O)N(CC#CBr)N=Cc1ccc(Cl)c(Cl)c1 [Compound 14, N'-Ethoxycarbonyl-N'-3-bromopropargyl 3,4-dichlorobenzaldehyde hydrazone]	0	0	> 100	0	> 100	0	0	0	0	> 100	> 100	> 100	0	85	0	0	> 100	50	0	0	inhibition of growth at 25 ppm (Xanthomonas campestris; XAN, rate 25 PPM): 0%
CCOC(=O)N(CC#CI)N=Cc1ccc(Cl)c(Cl)c1 [Compound 13, N'-Ethoxycarbonyl-N'-3-iodopropargyl 3,4-dichlorobenzaldehyde hydrazone]	50	0	> 100	0	> 100	0	75	50	0	> 100	100 (≈ 235 µM)	> 100	100	50	50	0	> 100	90	85	0	inhibition of growth at 25 ppm (Xanthomonas campestris; XAN, rate 25 PPM): 0%
COC(=O)N(CC#CI)N=Cc1ccc(F)cc1 [Compound 10, N'-Methoxycarbonyl-N'-3-iodopropargyl 4-fluorobenzaldehyde hydrazone]	–	–	< 4	–	> 500	–	–	0	0	> 500	< 4	> 500	–	50	–	50	< 4	–	50	0	inhibition of growth at 50 ppm (Septoria nodorum): 100%; inhibition of growth at 50 ppm (Pythium ultimum): 100%; inhibition of growth at 50 ppm (Phytophthora capsici): 100%; inhibition of growth at 50 ppm (Botrytis cinerea): 0%; inhibition of growth at 50 ppm (Fusarium roseum): 100%; inhibition of growth at 50 ppm (Piricularia oryzae [2]): 100%; inhibition of growth at 50 ppm (Cochliobolus sativus): 100%; inhibition of growth at 50 ppm (Rhizoctonia solani): 100%; inhibition of growth at 50 ppm (Xanthomonas campestris; XAN, rate 50 PPM): 0%
COC(=O)N(CC#CI)N=Cc1cc(Cl)cc(Cl)c1 [Compound 15, N'-Methoxycarbonyl-N'-3-iodopropargyl 3,5-dichlorobenzaldehyde hydrazone]	0	0	> 100	0	> 100	0	75	0	0	> 100	> 100	> 100	100	0	50	0	> 100	75	0	0	inhibition of growth at 25 ppm (Xanthomonas campestris; XAN, rate 25 PPM): 0%
COC(=O)N(CC#CI)N=Cc1ccc([N+](=O)[O-])o1 [Compound 8, N'-Methoxycarbonyl-N'-3-iodopropargyl 5-nitro-2-furancarboxaldehyde hydrazone]	–	–	< 4	–	63 (≈ 167 µM)	–	–	0	0	125 (≈ 331 µM)	< 4	250 (≈ 663 µM)	–	0	–	90	< 4	–	0	0	inhibition of growth at 50 ppm (Septoria nodorum): 100%; inhibition of growth at 50 ppm (Pythium ultimum): 100%; inhibition of growth at 50 ppm (Botrytis cinerea): 0%; inhibition of growth at 50 ppm (Fusarium roseum): 100%; inhibition of growth at 50 ppm (Piricularia oryzae [2]): 100%; inhibition of growth at 50 ppm (Cochliobolus sativus): 100%; inhibition of growth at 50 ppm (Rhizoctonia solani): 100%; inhibition of growth at 50 ppm (Xanthomonas campestris): 0%
COC(=O)N(CC#CBr)N=Cc1ccc(F)cc1 [Compound 7, N'-Methoxycarbonyl-N'-3-bromopropargyl 4-fluorobenzaldehyde hydrazone]	100	0	63 (≈ 201 µM)	0	125 (≈ 399 µM)	0	0	0	0	31 (≈ 99 µM)	31 (≈ 99 µM)	125 (≈ 399 µM)	0	0	0	0	31 (≈ 99 µM)	0	0	0	inhibition of growth at 50 ppm (Septoria nodorum): 0%; inhibition of growth at 50 ppm (Pythium ultimum): 100%; inhibition of growth at 50 ppm (Phytophthora capsici): 90%; inhibition of growth at 50 ppm (Botrytis cinerea): 0%; inhibition of growth at 50 ppm (Fusarium roseum): 0%; inhibition of growth at 50 ppm (Piricularia oryzae [2]): 90%; inhibition of growth at 50 ppm (Cochliobolus sativus): 0%; inhibition of growth at 50 ppm (Rhizoctonia solani): 0%; inhibition of growth at 50 ppm (Xanthomonas campestris; XAN, rate 50 PPM): 0%; inhibition of growth at 25 ppm (Xanthomonas campestris): 0%
COC(=O)N(CC#CBr)N=Cc1cc(Cl)cc(Cl)c1 [Compound 16, N'-Methoxycarbonyl-N'-3-bromopropargyl 3,5-dichlorobenzaldehyde hydrazone]	0	0	> 100	0	> 100	0	0	0	0	> 100	> 100	> 100	0	0	0	0	> 100	0	0	0	inhibition of growth at 25 ppm (Xanthomonas campestris; XAN, rate 25 PPM): 0%
